Tests used:
HCV genotype 1 [1] = assay: C208 Phase 2 study of telaprevir q8h or q12h with peginterferon alfa-2a or alfa-2b and ribavirin: HCV RNA; assay type: in vivo, human; settings: for RVR (subjects with undetectable HCV RNA, <10 IU/mL, at week 4): listed as TVR
Procedure: Background: Study 0208 is an ongoing open-label, randomized Phase 2 study of telaprevir (TVR) administered q8h or q12h in combination with peginterferon-alfa-2a (peginterferon-alfa-2a) or peginterferon-alfa-2b and ribavirin (T/PR) in treatment-naïve subjects with HCV genotype 1 infection. We report the results of an interim analysis conducted at week 12 of treatment.
Subjects in all arms received T/PR treatment for 12 weeks, and will subsequently receive either 12 or 36 additional weeks of PR based on rapid virologic response (RVR) criterion. Subjects who met the definition of viral breakthrough (≧1-log increase in HCV RNA above nadir) discontinued TVR dosing and will complete 48 weeks of PR. An intent-to-treat analysis was performed when all treated subjects had completed week 4 of treatment or had discontinued earlier than week 4. The analysis also assessed all treatment or TVR dosing discontinuations including subjects who discontinued beyond week 4, up to the time of data cutoff. The proportion of subjects with HCV RNA below the limit of detection (TaqMan assay LOD 10 IU/mL) at week 4 (RVR) is reported.
C208 is an ongoing, open-label, randomized, multicenter, Phase 2 exploratory study. Adult, treatment-naïve subjects with chronic HCV genotype 1 infection were enrolled, including subjects with bridging fibrosis. Inclusion criteria were consistent with those used in prior HCV studies. Subjects received 12 weeks of T/PR, followed by either 12 or 36 additional weeks of PR based on extended rapid virologic response (RVR) criterion (FIG. 1). Subjects with HCV RNA>1000 IU/mL at Week 4, 6 or 8 were required to discontinue TVR dosing and complete 48 weeks of PR.
An interim intent-to-treat (ITT) analysis was performed and is presented in this report, which includes data obtained for all subjects randomized had completed week 12 of treatment or had discontinued earlier. The primary efficacy endpoint was the proportion of subjects with HCV RNA below the limit of detection (LOD, 10 IU/mL) at different timepoints throughout the first 12 weeks of dosing. HCV RNA levels were measured using the TAQMAN™ HCV RNA assay v2.0 (Roche Molecular Systems Inc., Branchburg, N.J., U.S.A.).
Assessment of virologic breakthrough (defined as a >1-log 10 increase in HCV RNA from nadir, or HCV RNA>100 IU/mL in subjects whose HCV RNA had previously become undetectable [<10 IU/mL] at all assessment timepoints) was performed. Pharmacokinetics and viral dynamics were assessed by pre-defined serial measurements of plasma concentrations of TVR and HCV RNA, respectively, from baseline to Week 12. Pharmacokinetic analysis of TVR was performed using non-compartmental methods for data from full pharmacokinetic profiles. A viral dynamics model, which included fixed effects for treatment and random effects for clearance, drug effect, drop and death rate in infected cells with unstructured variance covariance matrix, was also constructed. Safety and tolerability were assessed by monitoring adverse events (AEs), laboratory abnormalities and cardiovascular parameters.

[2] = set-up: species or system human; settings: in vivo
Excerpt: This study was designed to provide information on the kinetics of HCV following treatment with VX-950 and peginterferon alfa-2a administered over 14 days.
This study randomized twenty treatment-naïve patients with chronic genotype 1 hepatitis C infection to three dosing arms (Table 6). At the completion of the 14-day study, 19 of 20 patients chose to begin peginterferon alfa-2a/ribavirin, starting within 5 days of completing the 14-day dosing period; as the other one declined to take the combination of Peg-IRN-2a and ribavirin. Clinic visits were conducted at the discretion of the investigators, after completion of the 1-week and 12-week study-mandated follow-up visits. Nineteen patients have been followed through 24 weeks after the completion of the study dosing. After discussion with the treating physicians, ten (4 in VX-950 and 6 in VX-950/peginterferon alfa-2a) patients stopped peginterferon alfa-2a/ribavirin treatment at 24 weeks.

HCV genotype 1 [3] = assay: Phase 2 studies PROVE1 and PROVE2: sustained virologic response; assay type: in vivo, human; settings: treatment-naïve genotype 1 patients
NS3 protease = assay: In vitro cleavage of TRIF; assay type: biochemical, HCV
Excerpt: Furthermore, NS3/4A is known to be involved in evasion of innate defenses, by e.g., TRIF-dependent mechanisms (as well as viral polyprotein processing). This immune evasion leads to viral persistence. Accordingly, a compound that inhibits both viral polyprotein processing and evasion of innate defenses is desirable.
TRIF binds to non-prime side of the NS3 protease active site. VX-950 binds to the same non-prime side of the active site as TRIF and blocks TRIP cleavage.

neopterin = assay: Serum neopterin concentration (competitive ELISA) during 14-day VX-950 dosing; assay type: in vivo, human; settings: 450 mg q8h and 1250 mg q12h dose groups, versus 750 mg q8h
Procedure: Accordingly, applicants determined the changes in serum neopterin concentration as a marker of monocyte/macrophage activity during administration of an inhibitor of (HCV) NS3·4A protease. As described herein, VX-950 was administered for 14 days in a randomized, double blind, placebo controlled, multiple-dose study in 34 patients infected with HCV genotype 1. Patients received VX-950 450 mg q8h (n=10), 750 mg q8h (n=8), 1250 mg q12h (n=10), or placebo (n=6). Serum neopterin concentrations were measured by a quantitative competitive ELISA (ELItest® Neopterin, Brahms, Hennigsdorf, Germany) at pretreatment, at day 7 and 14, and at day 10 of follow-up. The lower limit of detection (LLD) was 2 nmol/I. HCV RNA was assessed at frequent intervals during the study by real-time PCR (COBAS TAQMAN™ HCV Test; linear dynamic range of 3.0 ×10^1 to 2.0 ×10^8 HCV RNA IU/ml; LLD of 10 HCV RNA IU/ml; Roche Diagnostics, Branchburg, N.J.).

[4] = Oral bioavailability and plasma trough levels of VX-950; assay type: in vivo
Excerpt: The trough level is the concentration that a drug drops down to in plasma just before next dose (i.e., the minimum concentration between doses). It is important, particularly in viral diseases, to maintain drug levels above a certain concentration to maintain appropriate inhibition of viral replication.
Accordingly, preferred pharmaceutical compositions of this invention are formulated for oral administration.

[5] = Week 4, range across the four treatment groups

CCC[C@H](NC(=O)[C@@H]1[C@H]2CCC[C@H]2CN1C(=O)[C@@H](NC(=O)[C@@H](NC(=O)c1cnccn1)C1CCCCC1)C(C)(C)C)C(=O)C(=O)NC1CC1 [VX-950]
subjects who achieved <10 IU/mL HCV RNA (HCV genotype 1 [1]; [5]): 67-83% | subjects who achieved <25 IU/mL HCV RNA (HCV genotype 1 [1]; [5]): 87-96% | subjects who achieved <10 IU/mL HCV RNA (HCV genotype 1 [1]; Week 12, range across the four treatment groups): 83-93% | RVR (subjects with undetectable HCV RNA, <10 IU/mL, at week 4) (HCV genotype 1 [1]; arm A: TVR 750 mg q8h + Peg-IFN alfa-2a 180 μg/wk + ribavirin 1000-1200 mg/d (N 40)): 82% | number of subjects with viral breakthrough up to week 4 (HCV genotype 1 [1]; arm A: TVR 750 mg q8h + Peg-IFN alfa-2a + RBV): 0 | RVR (subjects with undetectable HCV RNA, <10 IU/mL, at week 4) (HCV genotype 1 [1]; arm B: TVR 750 mg q8h + Peg-IFN alfa-2b 1.5 μg/kg/wk + ribavirin 800-1200 mg/d (N 42)): 71% | number of subjects with viral breakthrough up to week 4 (HCV genotype 1 [1]; arm B: TVR 750 mg q8h + Peg-IFN alfa-2b + RBV): 2 | RVR (subjects with undetectable HCV RNA, <10 IU/mL, at week 4) (HCV genotype 1 [1]; arm C: TVR 1125 mg q12h + Peg-IFN alfa-2a 180 μg/wk + ribavirin 1000-1200 mg/d (N 40)): 85% | number of subjects with viral breakthrough up to week 4 (HCV genotype 1 [1]; arm C: TVR 1125 mg q12h + Peg-IFN alfa-2a + RBV): 2 | RVR (subjects with undetectable HCV RNA, <10 IU/mL, at week 4) (HCV genotype 1 [1]; arm D: TVR 1125 mg q12h + Peg-IFN alfa-2b 1.5 μg/kg/wk + ribavirin 800-1200 mg/d (N 39)): 68% | number of subjects with viral breakthrough up to week 4 (HCV genotype 1 [1]; arm D: TVR 1125 mg q12h + Peg-IFN alfa-2b + RBV): 1 | additional breakthroughs after discontinuation of TVR (HCV genotype 1 [1]; both in patients infected with genotype 1a): 2 | Patients with viral breakthrough while on TVR (HCV genotype 1 [1]; q8hr alfa-2a arm): 1 | Patients with viral breakthrough while on TVR (HCV genotype 1 [1]; q8hr alfa-2b arm): 3 | Patients with viral breakthrough while on TVR (HCV genotype 1 [1]; q12 hr alfa-2a arm): 2 | Patients with viral breakthrough while on TVR (HCV genotype 1 [1]; q12 hr alfa-2b arm): 3 | Tolerability [2]: well tolerated | sustained virologic response rate, PROVE2 (HCV genotype 1 [3]; 24-week TVR-containing regimen versus 48-week peginterferon and ribavirin (p=0.01)): 69% | sustained virologic response rate, PROVE1 (HCV genotype 1 [3]; 24-week TVR-containing regimen versus 48-week peginterferon and ribavirin (p=0.02)): 61% | cleavage of TRIF (NS3 protease): inhibits in vitro cleavage of TRIF | change in mean neopterin levels (neopterin): decreases in mean neopterin levels were smaller | Plasma trough levels ([4]; 750 mg every 8 hours): higher trough levels | Oral bioavailability ([4]; in vivo, po): orally bioavailable

From patent US8871812B2, “Therapeutic regimen comprising PEG-interferon, ribavirin and VX-950 for the treatment of hepatitis” (priority 2008, dated 2014)
